Reference: PMC6631369 (Anti-cancer drugs, 2018)

Legend:
UGT1A1 = system: UGT1A1; design: species or system patients; settings: UGT1A1*28 and *60; population model ref 24
[1] = cited from earlier work
[2] = no reference given; cited from earlier work

For `O=C(/C=C/c1cccc(S(=O)(=O)Nc2ccccc2)c1)NO` [belinostat], the “model-predicted clearance versus number of variant copies of UGT1A1” value (UGT1A1) is given as “decreasing trend with the number of variant copies of UGT1A1” and the half-life [1] is given as ~ 1 h.

For `COc1cc([C@@H]2c3cc4c(cc3[C@@H](O[C@@H]3O[C@@H]5CO[C@@H](C)O[C@H]5[C@H](O)[C@H]3O)[C@H]3COC(=O)[C@H]23)OCO4)cc(OC)c1O` [etoposide], the “dose excreted unchanged renally” value [2] is given as 56%.
